Results as given in US8829197B2, “Salts and polymorphs of desazadesferrithiocin polyether analogues as metal chelation agents” (FerroKin Biosciences, Inc., priority 2008, dated 2014).
Counter-ions that a name gives are not always drawn. Like-named read-outs stand apart in the source and are kept apart here.

Columns and labels:
Format in all cases: physicochemical
[1] = Relative humidity stress / physical stability on exposure and storage; settings: for hygroscopicity (in words): judged from 75% RH exposure; for physical change when exposed to 75% RH: 75% RH for 3 days
Excerpt: Following isolation, salts were then characterized by one or more standard techniques including but not limited to x-ray powder diffraction (XRPD), single crystal x-ray diffraction (SC-XRD or XRD), nuclear magnetic resonance (NMR), solubility analysis, and stability testing by moisture sorption/desorption stress analysis and differential scanning calorimetry (DSC).

[2] = Approximate solubility (aliquots of solvent, visual inspection)
Description: Weighed samples were treated with aliquots of test solvents at room temperature. Samples were typically sonicated between additions to facilitate dissolution. Complete dissolution of the test material in each solvent was determined by visual inspection. Solubility was estimated based on the total volume of solvent used to provide complete dissolution. The actual solubility may be greater than the value calculated due to the incremental addition of solvent and kinetics of dissolution of the material. […] The solubility is expressed as […] if dissolution occurred after the addition of first aliquot.
Approximate solubilities are calculated based on the total solvent used to give a solution based on visual inspection. Small aliquots of solvent are added to a weighed sample with agitation. Actual solubilities may be greater because of the volume of the solvent portions utilized or a slow rate of dissolution. Solubilities are reported to the nearest mg/mL. Simulated gastric fluid (SGF) was prepared according to the 2008 USP vol. 1, p 817 except without pepsin.
Approximate solubilities are calculated based on the total solvent used to give a solution based on visual inspection. Small aliquots of solvent are added to a weighed sample with agitation. Actual solubilities may be greater because of the volume of the solvent portions utilized or a slow rate of dissolution.

[3] = Moisture sorption/desorption (DVS) analysis; settings: for weight loss on desorption: between ~95% and ~5% RH; for total weight gain (water uptake): relative humidity from ~5% to ~95% RH; for hygroscopicity (in words): from DVS data; for weight loss during desorption: desorption step, 95% to 5% RH
Description: Moisture sorption/desorption (DVS) data were collected on a VTI SGA-100 Vapor Sorption Analyzer. Sorption and desorption data were collected over a range of 5% to 95% relative humidity (RH) at 10% RH intervals under a nitrogen purge. Samples were not dried prior to analysis. Equilibrium criteria used for analysis were less than 0.0100% weight change in 5 minutes, with a maximum equilibration time of 3 hours if the weight criterion was not met. Data were not corrected for the initial moisture content of the samples. NaCl and PVP were used as calibration standards.

[4] = Water, salts of (S)-4′-(OH)-DADFT-PE (Table 16)
[5] = water, salts of (S)-4′-(OH)-DADFT-PE
[6] = listed as magnesium salt candidate
[7] = listed as Magnesium Salt of (S)-4′-(Oh)-DADFT-PE
[8] = listed as N-methyl-D-glucamine (NMG) Salt of (S)-4′-(OH)-DADFT-PE
[9] = listed as Tromethamine Salt of (S)-4′-(OH)-DADFT-PE

COCCOCCOCCOc1ccc(C2=N[C@@](C)(C(=O)O)CS2)c(O)c1 [Calcium A]
deliquescence upon ~75% RH stress [1]: No apparent deliquescence
solubility ([2]; 0.1N HCl in water, simulated gastric fluid, thermodynamic from solid, 0.1N HCl in Water, Table 16, read-out: Solubility): 3 mg/mL
solubility [2, 4]: <0.5 mg/mL
aqueous solubility (in words) [2, 5]: negligible

COCCOCCOCCOc1ccc(C2=N[C@@](C)(C(=O)O)CS2)c(O)c1 [Lysine A, 2,6-diammoniohexanoate (S)-2-(2-hydroxy-4-(2-(2-(2-methoxyethoxy)ethoxy)ethoxy)phenyl)-4-methyl-4,5-dihydrothiazole-4-carboxylate]
appearance upon ~75% RH stress [1]: became oily
deliquescence upon ~75% RH stress ([1]; listed as Lysine salt candidate): No apparent deliquescence
solubility [2, 4]: <0.5 mg/mL
aqueous solubility (in words) [2, 5]: negligible

COCCOCCOCCOc1ccc(C2=N[C@@](C)(C(=O)O)CS2)c(O)c1 [Magnesium A]
deliquescence upon ~75% RH stress [1, 6]: No apparent deliquescence
solubility [2, 4]: 60 mg/mL
aqueous solubility ([2]; water, salts of (S)-4′-(OH)-DADFT-PE, listed as magnesium salt candidate): ~60 mg/mL
additional weight gain above ~85% RH [3, 7]: ~20.2 wt %
weight gain below ~85% RH [3, 7]: ~22.0 wt %
weight loss on desorption [3, 7]: ~41.2 wt %
total weight gain (water uptake) [3, 7]: ~42.7 wt %
total weight gain (water uptake) [3, 6]: ~42.7 wt %
weight loss upon equilibration at ~5% RH [3, 7]: ~0.7 wt %

COCCOCCOCCOc1cccc(C2=N[C@@](C)(C(=O)O)CS2)c1O [Magnesium salt of (S)-3′-(OH)-DADFT-PE, magnesium (S)-2-(2-hydroxy-3-(2-(2-(2-methoxyethoxy)ethoxy)ethoxy)phenyl)-4-methyl-4,5-dihydrothiazole-4-carboxylate hydroxide]
XRPD pattern after exposure to 75% RH ([1]; 75% RH for 8 days): remained unchanged
deliquescence when exposed to 75% RH ([1]; 75% RH for 8 days): did not deliquesce
hygroscopicity (in words) [1]: non-hygroscopic
solubility ([2]; simulated gastric fluid (SGF) without pepsin, simulated gastric fluid, thermodynamic from solid, SGF (simulated gastric fluid, without pepsin), Table 14, read-out: Approximate Solubility): ≥ 50 mg/mL
solubility ([2]; water, thermodynamic from solid, Water, salts of (S)-3′-(OH)-DADFT-PE (Table 14), read-out: Approximate Solubility): ≥ 48 mg/mL
solubility ([2]; water, thermodynamic from solid, water, salts of (S)-3′-(OH)-DADFT-PE, read-out: aqueous solubility): ≥ 48 mg/mL

COCCOCCOCCOc1ccc(C2=N[C@@](C)(C(=O)O)CS2)c(O)c1 [NMG A, 2,3,4,5,6-pentahydroxy-N-methylhexan-1-aminium (S)-2-(2-hydroxy-4-(2-(2-(2-methoxyethoxy)ethoxy)ethoxy)phenyl)-4-methyl-4,5-dihydrothiazole-4-carboxylate]
appearance upon ~75% RH stress [1]: became oily
deliquescence upon ~75% RH stress ([1]; listed as NMG salt candidate): No apparent deliquescence
solubility [2, 4]: 60 mg/mL
aqueous solubility ([2]; water, salts of (S)-4′-(OH)-DADFT-PE, listed as NMG salt candidate): ~60 mg/mL
additional weight gain above ~85% RH [3, 8]: ~27.0 wt %
weight gain below ~85% RH [3, 8]: ~34.7 wt %
weight loss on desorption [3, 8]: ~60.6 wt %
total weight gain (water uptake) [3, 8]: ~61.7 wt %
total weight gain (water uptake) ([3]; listed as NMG salt candidate): ~61.7 wt %
weight loss upon equilibration at ~5% RH [3, 8]: ~0.5 wt %

COCCOCCOCCOc1cccc(C2=N[C@@](C)(C(=O)[O-])CS2)c1O.[Na+] [Sodium salt of (S)-3′-(OH)-DADFT-PE]
physical change when exposed to 75% RH [1]: remained physically unchanged
hygroscopicity (in words) [1]: non-hygroscopic
exposure to ambient air ([1]; lyophilized solid, ambient air (~57% RH) for a few minutes): solids deliquesced

COCCOCCOCCOc1ccc(C2=N[C@@](C)(C(=O)O)CS2)c(O)c1 [Tromethamine A, 1,3-dihydroxy-2-(hydroxymethyl)propan-2-aminium (S)-2-(2-hydroxy-4-(2-(2-(2-methoxyethoxy)ethoxy)ethoxy)phenyl)-4-methyl-4,5-dihydrothiazole-4-carboxylate]
appearance upon ~75% RH stress at elevated temperature ([1]; one day relative humidity stress, ~75% RH, elevated temperature): become oily
deliquescence upon ~75% RH stress ([1]; listed as Tromethamine salt candidate): no apparent deliquescence
aqueous solubility ([2]; water, salts of (S)-4′-(OH)-DADFT-PE, listed as Tromethamine salt candidate): > 124 mg/mL
weight gain above ~65% RH ([3]; above ~65% RH): ~50.3 wt %
weight gain (water uptake) below ~65% RH ([3]; below ~65% RH): ~1.5 wt %
weight loss on desorption [3, 9]: ~48.4 wt %
hygroscopicity (in words) [3]: lower hygroscopicity compared to magnesium and NMG salt candidates
total weight gain (water uptake) [3, 9]: ~51.8 wt %
weight loss upon equilibration at ~5% RH [3, 9]: ~0.7 wt %

COCCOCCOCCOc1cccc(C2=N[C@@](C)(C(=O)O)CS2)c1O [magnesium salt Form B, magnesium (S)-2-(2-hydroxy-3-(2-(2-(2-methoxyethoxy)ethoxy)ethoxy)phenyl)-4-methyl-4,5-dihydrothiazole-4-carboxylate hydroxide]
weight loss upon equilibrium at 5% RH ([3]; 5% RH): 10.8%
additional weight gain during sorption ([3]; above 65% RH, equilibrium weight not reached): 21.2%
weight loss during desorption [3]: 26.6%
weight gain during sorption ([3]; from 5% to 65% RH): 5.7%
hygroscopicity (in words) [3]: hygroscopic

C1CNCCN1.COCCOCCOCCOc1cccc(C2=N[C@@](C)(C(=O)O)CS2)c1O [piperazine salt of (S)-3′-(OH)-DADFT-PE]
physical change when exposed to 75% RH [1]: deliquesced
hygroscopicity (in words) [1]: hygroscopic

COCCOCCOCCOc1cccc(C2=N[C@@](C)(C(=O)[O-])CS2)c1O.[K+] [potassium salt Form B, potassium (S)-3′-desazadesferrithiocin polyether]
form conversion on exposure to 40° C. ([1]; 40° C. for 6 days): desolvated into a mixture with Form A
form conversion on exposure to P2O5 ([1]; P2O5 for 6 days): converted to a new form, namely Form C
physical stability of the form (in words) ([1]; low humidity (P2O5) or elevated temperature (40° C.)): unstable
weight loss during desorption [3]: ~66%
hygroscopicity (in words) [3]: extremely hygroscopic
average percentage weight gain at plateau of absorption curve ([3]; plateau between 35 and 65% RH): ~8%
weight gain during sorption ([3]; sorption step from 5% to 95% RH): ~70%

zinc (S)-3′-desazadesferrithiocin polyether [Zinc salt of (S)-3′-(OH)-DADFT-PE]
physical change when exposed to 75% RH [1]: remained physically unchanged
hygroscopicity (in words) [1]: non-hygroscopic
Approximate Solubility ([2]; SGF (simulated gastric fluid, without pepsin), Table 14): ≧39 mg/mL
Approximate Solubility ([2]; Water, salts of (S)-3′-(OH)-DADFT-PE (Table 14)): <1 mg/mL
aqueous solubility ([2]; water, salts of (S)-3′-(OH)-DADFT-PE): ~1 mg/mL
